Reference: ChEMBL document CHEMBL1151664, “Antitumor agents, 75. Synthesis of cytotoxic anthraquinones digiferruginol and morindaparvin-B” (1985)
≈ marks a conversion by molar mass, not a printed value.

System: KB
Experiment: Cytotoxicity against human KB cells
Type: functional
Conditions: read-out: ED50 (the source's name)

O=C1c2ccccc2C(=O)c2c1ccc(CO)c2O [DIGIFERRUGINOL]
EC50: 0.09 µg/mL (≈ 0.354 µM)
